Measurements published in US10130615B2, “Benzomorphan analogs and the use thereof” (priority 2014, dated 2018).

Experiments:
ORL-1 receptor = target: T1, ORL-1 receptor (Homo sapiens, UniProt P41146); experiment: ORL-1 receptor radioligand binding assay ([3H]-nociceptin); conditions: HEK-293 or CHO cells; read-out: Ki (nM) Opioid Receptor ORL-1
T1 construct: host or cells: HEK-293
Method: ORL-1 Receptor Binding Assay Procedure: Membranes from recombinant HEK-293 cells expressing the human opioid receptor-like receptor (ORL-1) (Perkin Elmer, Shelton, Conn.) were prepared by lysing cells in ice-cold hypotonic buffer (2.5 mM MgCl2, 50 mM HEPES, pH 7.4) (10 ml/10 cm dish) followed by homogenization with a tissue grinder/Teflon pestle. Membranes were collected by centrifugation at 30,000×g for 15 min at 4° C. and pellets resuspended in hypotonic buffer to a final concentration of 1-3 mg/ml. Protein concentrations were determined using the BioRad protein assay reagent with bovine serum albumen as standard. Aliquots of the ORL-1 receptor membranes were stored at −80° C.
Radioligand binding assays (screening and dose-displacement) used 0.1 nM [^3H]-nociceptin (Perkin Elmer, Shelton, Conn.; 87.7 Ci/mmole) with 12 μg membrane protein in a final volume of 500 μl binding buffer (10 mM MgCl2, 1 mM EDTA, 5% DMSO, 50 mM HEPES, pH 7.4). Non-specific binding was determined in the presence of […] unlabeled nociceptin (American Peptide Company). All reactions were performed in 96-deep well polypropylene plates for 1 h at room temperature. […] The data from screening and dose-displacement experiments were analyzed using Microsoft Excel and the curve fitting functions in GraphPad PRISM™, v. 3.0 or higher, respectively, or an in-house function for one-site competition curve-fitting.

μ-opioid receptor [1] = target: T2, μ-opioid receptor (Homo sapiens, UniProt P35372); experiment: cell-based; design: purchased Perkin Elmer, Shelton, Conn; conditions: U2OS cells; for EC50: read-out: β-Arr2 μ EC50; for Emax: read-out: β-Arr2 μ Emax
μ-opioid receptor [2] = target: T2, μ-opioid receptor; experiment: biochemical; design: purchased Perkin Elmer, Shelton, Conn; host or cells: HEK-293 or CHO; conditions: HEK-293 or CHO cells; for EC50: read-out: GTPγS μ EC50; for Emax: relative to DAMGO, read-out: GTPγS μ Emax
μ-opioid receptor [3] = target: T2, μ-opioid receptor; experiment: μ-opioid receptor GTPγS functional assay, U2OS cells; conditions: for Emax: read-out: GTPγS μ Emax
κ-opioid receptor [4] = target: T3, κ-opioid receptor (Homo sapiens, UniProt P41145); experiment: κ-opioid receptor GTPγS functional assay, U2OS cells; assay type: biochemical; design: expressed in transfected cells; host or cells: U-2 OS; conditions: U2OS cells; for EC50: read-out: GTPγS κ EC50
Method: (§1) Plates were incubated for 30 min at a temperature of about 25° C. with shaking.

κ-opioid receptor [5] = target: T3, κ-opioid receptor; experiment: κ-opioid receptor β-Arr2 activity response, U2OS cells; assay type: cell-based; design: expressed in transfected cells; host or cells: U-2 OS; conditions: U2OS cells; for EC50: read-out: β-Arr2 κ EC50
κ-opioid receptor [6] = target: T3, κ-opioid receptor; experiment: κ-opioid receptor radioligand binding assay ([3H]-U69,593); design: expressed in transfected cells; host or cells: HEK-293; conditions: HEK-293 or CHO cells; read-out: Ki (nM) Opioid Receptor κ
Method: κ-opioid Receptor Binding Assay Procedures: Membranes from recombinant HEK-293 cells expressing the human κ opioid receptor (κ) (cloned in house) were prepared by lysing cells in ice cold hypotonic buffer (2.5 mM MgCl2, 50 mM HEPES, pH 7.4) (10 mL/10 cm dish) followed by homogenization with a tissue grinder/Teflon pestle. Membranes were collected by centrifugation at 30,000×g for 15 min at 4° C. and pellets were resuspended in hypotonic buffer to a final concentration of 1-3 mg/mL. Protein concentrations were determined using the BioRad protein assay reagent with bovine serum albumen as standard. Aliquots of κ receptor membranes were stored at −80° C.
Radioligand dose displacement assays used 0.4 nM [^3H]-U69,593 (GE Healthcare, Piscataway, N.J.; 40 Ci/mmole) with 15 μg membrane protein (recombinant κ opioid receptor expressed in HEK 293 cells; in-house prep) in a final volume of 200 μl binding buffer (5% DMSO, 50 mM Trizma base, pH 7.4). Non-specific binding was determined in the presence of 10 μM unlabeled naloxone or U69,593. All reactions were performed in 96-well polypropylene plates for 1 hr at a temperature of about 25° C.

κ-opioid receptor [7] = target: T3, κ-opioid receptor; experiment: κ-opioid receptor [35S]GTPγS functional assay, HEK-293 or CHO cells; assay type: biochemical; design: expressed in transfected cells; host or cells: HEK-293; conditions: HEK-293 or CHO cells; for EC50: read-out: GTPγS κ EC50; for Emax: relative to U69,593
Method: as §1

μ-opioid receptor [8] = target: T2, μ-opioid receptor; experiment: μ-opioid receptor radioligand binding assay ([3H]-diprenorphine); design: purchased Perkin Elmer, Shelton, Conn; host or cells: HEK-293 or CHO; conditions: HEK-293 or CHO cells; read-out: Ki (nM) Opioid Receptor μ
Method: μ-opioid Receptor Binding Assay Procedures: Radioligand dose-displacement binding assays for μ-opioid receptors used 0.3 nM [^3H]-diprenorphine (Perkin Elmer, Shelton, Conn.), with […] membrane protein/well in a final volume of 500 μl binding buffer (10 mM MgCl2, 1 mM EDTA, 5% DMSO, 50 mM HEPES, pH 7.4). Reactions were carried out in the absence or presence of increasing concentrations of unlabeled naloxone. All reactions were conducted in 96-deep well polypropylene plates for 2 hr at room temperature. […] The data were analyzed using the one-site competition curve fitting functions in GraphPad PRISM™ v. 3.0 or higher (San Diego, Calif.), or an in-house function for one-site competition curve-fitting.

T2 sequence (P35372 whole entry, species assumed): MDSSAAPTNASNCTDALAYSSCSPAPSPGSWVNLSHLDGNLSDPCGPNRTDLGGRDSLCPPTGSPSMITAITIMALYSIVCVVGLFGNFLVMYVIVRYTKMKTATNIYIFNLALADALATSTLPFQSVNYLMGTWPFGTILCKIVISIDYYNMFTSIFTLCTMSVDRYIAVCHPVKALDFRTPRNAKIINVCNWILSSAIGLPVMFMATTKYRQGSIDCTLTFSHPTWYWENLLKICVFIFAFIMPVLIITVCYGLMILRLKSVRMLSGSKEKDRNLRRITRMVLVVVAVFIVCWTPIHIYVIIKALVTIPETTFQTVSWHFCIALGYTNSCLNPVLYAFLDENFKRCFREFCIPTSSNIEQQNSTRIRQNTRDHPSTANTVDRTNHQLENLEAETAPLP
T3 sequence (P41145 whole entry): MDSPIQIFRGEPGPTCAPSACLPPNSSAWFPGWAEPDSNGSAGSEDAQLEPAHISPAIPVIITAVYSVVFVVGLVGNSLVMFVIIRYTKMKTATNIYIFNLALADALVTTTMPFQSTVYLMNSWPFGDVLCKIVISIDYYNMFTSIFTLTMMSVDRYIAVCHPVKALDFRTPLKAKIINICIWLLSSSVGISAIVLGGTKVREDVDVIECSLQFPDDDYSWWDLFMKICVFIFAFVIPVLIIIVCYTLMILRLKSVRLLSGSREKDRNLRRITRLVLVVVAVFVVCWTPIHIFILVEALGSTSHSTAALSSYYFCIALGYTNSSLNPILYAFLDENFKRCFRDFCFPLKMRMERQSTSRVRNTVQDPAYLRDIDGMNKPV
T1 sequence (P41146 whole entry): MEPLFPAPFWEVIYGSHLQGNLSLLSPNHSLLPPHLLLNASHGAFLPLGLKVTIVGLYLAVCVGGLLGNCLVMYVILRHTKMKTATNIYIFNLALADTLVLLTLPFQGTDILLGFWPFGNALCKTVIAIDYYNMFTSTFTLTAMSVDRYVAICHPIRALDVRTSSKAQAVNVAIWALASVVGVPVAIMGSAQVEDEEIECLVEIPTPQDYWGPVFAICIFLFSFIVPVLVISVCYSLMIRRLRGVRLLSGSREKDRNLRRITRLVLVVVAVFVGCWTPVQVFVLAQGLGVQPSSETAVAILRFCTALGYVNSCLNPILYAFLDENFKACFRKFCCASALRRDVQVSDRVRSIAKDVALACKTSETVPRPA

Row | SMILES | Ki (ORL-1 receptor) [nM] | EC50 (μ-opioid receptor [1]) [nM] | Emax (μ-opioid receptor [1]) [%] | EC50 (μ-opioid receptor [2]) [nM] | Emax (μ-opioid receptor [2]) [%] | EC50 (μ-opioid receptor [3]) [nM] | Emax (μ-opioid receptor [3]) [%] | Emax (κ-opioid receptor [4]) [%] | EC50 (κ-opioid receptor [4]) [nM] | Emax (κ-opioid receptor [5]) [%] | EC50 (κ-opioid receptor [5]) [nM] | Ki (κ-opioid receptor [6]) [nM] | EC50 (κ-opioid receptor [7]) [nM] | Emax (κ-opioid receptor [7]) [%] | Ki (μ-opioid receptor [8]) [nM]
1 | C[C@H]1[C@H]2Cc3ccc(O)cc3C1(CCN[C@H]1C[C@H]3CCC[C@@H](C1)N3[C@@H]1C[C@@H]3CCCC[C@@H](C3)C1)CCN2C [Compound 63, (2R,6R,11R)-6-(2-(((1R,3R,5S)-9-((1R,6S,8r)-bicyclo[4.3.1]decan-8-yl)-9-azabicyclo[3.3.1]nonan-3-yl)amino)-ethyl)-3,11-dimethyl-1,2,3,4,5,6-hexahydro-2,6-methanobenzo[d]azocin-8-ol] | 125 ± 24.2 | 1.23 ± 0.31 | 21.8 ± 1.31 | 2.43 ± 0.67 | 74.7 ± 2.4 |  |  |  |  |  |  |  |  |  | 
2 | CC(C)C[C@H](NCCCC[C@]12CCN(CC3CC3)[C@H](Cc3ccc(O)cc31)[C@@H]2C)C(=O)O [Compound 24, (4-((2R,6R,11R)-3-(cyclopropyl-methyl)-8-hydroxy-11-methyl-2,3,4,5-tetrahydro-2,6-methanobenzo[d]azocin-6(1H)-yl)butyl)-L-leucine] |  |  | -0.4 ± 0.6 | 5.46 ± 0.51 | 19.5 ± 2.26 | 1.94 ± 0.28 | 77.3 ± 3.18 | 98.3 ± 4.33 | 0.51 ± 0.072 | 54 ± 4.06 | 3.56 ± 0.91 | 0.55 ± 0.11 | 9.32 ± 2.97 | 102 ± 5.57 | 2.89 ± 0.63
3 | C[C@H]1[C@H]2Cc3ccc(O)cc3[C@]1(CCCCN[C@@H](CCCCN)C(=O)O)CCN2CC1CC1 [Compound 25, (4-((2R,6R,11R)-3-(cyclopropyl-methyl)-8-hydroxy-11-methyl-2,3,4,5-tetrahydro-2,6-methanobenzo[d]azocin-6(1H)-yl)butyl)-L-lysine] |  |  | -1.4 |  | 1 | 1.29 ± 0.11 | 48.3 ± 0.67 | 99 ± 4.58 | 0.17 ± 0.038 | 50 ± 0.58 | 0.1 ± 0.019 | 0.077 ± 0.014 | 2.33 ± 0.51 | 104 ± 5.03 | 3.58 ± 1.45
4 | C[C@H]1[C@H]2Cc3ccc(O)cc3[C@]1(CCNC(=O)Cc1ccc(C(=O)O)cc1)CCN2CC1CC1 [Compound 31, 4-(2-((2-((2R,6R,11R)-3-(cyclopropyl-methyl)-8-hydroxy-11-methyl-2,3,4,5-tetrahydro-2,6-methanobenzo[d]azocin-6(1H)-yl)ethyl)amino)-2-oxoethyl)-benzoic acid] |  |  | -1.25 |  | 0 | 8.77 ± 1.37 | 58 ± 4.73 | 104 ± 3.48 | 18.5 ± 2.16 | 29.7 ± 5.04 | 53.4 ± 8.62 | 18.4 ± 3.6 | 94.2 ± 33.8 | 88.7 ± 6.89 | 25.1 ± 7.56
5 | COC(=O)c1ccc(CC(=O)NCC[C@]23CCN(CC4CC4)[C@H](Cc4ccc(OC)cc42)[C@@H]3C)cc1 [Compound 30, methyl 4-(2-((2-((2R,6R,11R)-3-(cyclopropylmethyl)-8-methoxy-11-methyl-2,3,4,5-tetrahydro-2,6-methano-benzo[d]azocin-6(1H)-yl)ethyl)amino)-2-oxoethyl)benzoate] |  |  | 1 ± 0.5 |  | 0 | 230 ± 27.5 | 51 ± 3.51 | 104 ± 2.96 | 13.1 ± 1.48 | -1 |  | 6.18 ± 1.72 | 259 ± 33.1 | 83 ± 7.77 | 389 ± 124
6 | COC(=O)[C@H](C)NCC[C@]12CCN(CC3CC3)[C@H](Cc3ccc(OC)cc31)[C@@H]2C [Compound 38, methyl (2-((2R,6R,11R)-3-(cyclopropyl-methyl)-8-methoxy-11-methyl-2,3,4,5-tetrahydro-2,6-methanobenzo[d]azocin-6(1H)-yl)ethyl)-L-alaninate] |  |  | -0.17 ± 0.93 | 551 ± 173 | 15.8 ± 1.03 | 137 ± 16.1 | 53 ± 3.51 | 112 ± 2.91 | 2.11 ± 0.23 | 70 ± 2 | 141 ± 45.5 | 0.78 ± 0.14 | 287 ± 30 | 109 ± 5.46 | 94.7 ± 18.6
7 | C[C@H]1[C@H]2Cc3ccc(O)cc3C1(CCN[C@H]1C[C@H]3CCC[C@@H](C1)N3CC[C@@H]1CC[C@H]3C[C@@H]1C3(C)C)CCN2C [Compound 64, (2R,6R,11R)-6-(2-(((1R,3S,5S)-9-(2-((1S,2S,5S)-6,6-dimethylbicyclo-[3.1.1]heptan-2-yl)ethyl)-9-azabicyclo-[3.3.1]nonan-3-yl)amino)ethyl)-3,11-dimethyl-1,2,3,4,5,6-hexahydro-2,6-methanobenzo[d]azocin-8-ol] | 563 ± 97.5 | 7450 ± 929 | 51.8 ± 7.76 | 19.6 ± 5.19 | 43.5 ± 2.96 |  |  |  |  |  |  |  |  |  | 
8 | COC(=O)[C@H](Cc1ccccc1)NCCCC[C@]12CCN(CC3CC3)[C@H](Cc3ccc(O)cc31)[C@@H]2C [Compound 27] |  |  | 1 |  | 1 | 0.27 ± 0.058 | 22.3 ± 2.85 | 106 ± 7.13 | 0.15 ± 0.023 | 12.7 ± 1.86 | 0.27 ± 0.11 | 0.054 ± 0.01 | 0.6 ± 0.12 | 61.7 ± 4.33 | 0.071 ± 0.021
9 | C[C@H]1[C@H]2Cc3ccc(O)cc3[C@]1(CCNC(=O)c1ccc(C(=O)O)cc1)CCN2CC1CC1 [Compound 32, 4-((2-((2R,6R,11R)-3-(cyclopropyl-methyl)-8-hydroxy-11-methyl-2,3,4,5-tetrahydro-2,6-methanobenzo[d]azocin-6(1H)-yl)ethyl)carbamoyl)benzoic acid] |  |  | -1 |  | -1 | 2.16 ± 0.38 | 57.3 ± 5.04 | 97.7 ± 4.67 | 35.7 ± 5.29 | 11.3 ± 1.2 | 26.7 ± 10.5 | 35 ± 5.97 | 144 ± 25.4 | 91.3 ± 9.94 | 5.62 ± 1.41
